Experimental data reported in patent publication US6875757B2, “LPA receptor agonists and antagonists and methods of use” (University of Tennessee Research Foundation, priority 2000, dated 2005).
Where a name gives a salt, the structure may show the parent alone. Read-outs that look alike come from different tables or passages of the source.

Legend:
[1] = system: PC-3 prostate cancer cell line; test: Cytotoxicity / growth inhibition (SRB), PC-3; assay type: cell-based; details: 96 hours drug exposure, read-out: IC50 ± SEM, PC-3
Protocol: (§1) Cells were removed from stock flasks using trypsin, centrifuged, resuspended in fresh media, and plated at a density of approximately 2,000 cells/well in 96-well culture plates. Final drug concentrations ranged from 0.05 to either 10 or 50 μM. Control experiments with no drug added (negative control) and 5-fluorouracil added (positive control) were performed in parallel. Media was removed and replaced at 48 hours to minimize the effects of drug degradation during the course of the experiment. After 96 hours drug exposure, cells were fixed by the addition of cold 50% trichloroacetic acid (TCA) and incubation at 4° C. for 1 hour. Fixed cells were stained with sulforhodamine B (SRB), and cell number was determined by comparison of absorbance at 540 nm, as compared to a standard curve of cell number versus absorbance. Experiments were performed in duplicate.

[2] = system: LNCaP prostate cancer cell line; test: Cytotoxicity / growth inhibition (SRB), LNCaP; assay type: cell-based; details: 96 hours drug exposure, read-out: IC50 ± SEM, LNCaP
Protocol: as §1

[3] = system: DU-145 prostate cancer cell line; test: Cytotoxicity / growth inhibition (SRB), DU145; assay type: cell-based; details: read-out: IC50 ± SEM, DU145
Protocol: as §1

[4] = molecular target: PSP24 PLGFR (Xenopus laevis, UniProt P79945); test: Xenopus oocyte assay: LPA-induced oscillatory chloride currents (two-electrode voltage clamp); assay type: cell-based; details: for inhibition of LPA-induced chloride currents: Xenopus oocytes, extracellular application; for reversibility of inhibition of LPA-induced chloride currents: after washing the oocyte; for threshold to elicit a response alone: compound alone, agonist response
Protocol: Xenopus oocytes which endogenously express PSP24 PLGFR were used to screen the newly designed and synthesized compounds for their LPA inhibitory activity.
(§2) Oocytes were obtained from xylazine-anesthetized adult Xenopus laevis frogs (Carolina Scientific, Burlington, N.C.) under aseptic conditions and prepared for experiment. […] Oocytes were kept in Barth's solution in an incubator between 17-20° C. and were used for 2-7 days after isolation.
(§3) Electrophysiological recordings were carried out using a standard two-electrode voltage-clamp amplifier holding the membrane potential at −60 mV (GeneClamp 500, Axon Instruments, Calif.). […] Membrane currents were recorded with a NIC-310 digital oscilloscope (Nicolet, Madison, Wis.). Applications were made at intervals of 15 mins (minimum) to allow for the appropriate washout and recovery from desensitization.
as §2
as §3, with “CA).” for “Calif.).”

[5] = molecular target: T1, human Edg-2 (Homo sapiens, UniProt Q92633); test: Ca2+ responses (Fura-2) in RH7777 cells expressing Edg-2; assay type: cell-based
T1 construct: expressed in transfected cells
Protocol: (§4) RH7777 cells were transfected with the cDNA constructs encoding human Edg-2, Edg-4, or Edg-7 and then were subcloned into the pCDNA3 expression vector using the Cytofectene transfection reagent according to the manufacturers' protocol. Transfected cells were selected in DMEM containing 10% FBS and 1 mg/ml geneticin. Resistant cells were collected and subcloned by limiting dilution. The resulting clones were then screened using functional assays and RT-PCR analysis. Data are representative of three individual clones.

[6] = molecular target: T2, human Edg-4 (Homo sapiens, UniProt Q9HBW0); test: Ca2+ responses (Fura-2) in RH7777 cells expressing Edg-4 (stable or transient); assay type: cell-based
T2 construct: expressed in transfected cells
Description: RH7777 cells, stably expressing human Edg-4, were kindly provided by Dr. Kevin Lynch (University of Virginia, Charlottesville, Va.). Flag-tagged cDNA's encoding human Edg-4 and -7 inserted into the pCDNA3 expression plasmid (Invitrogen, Carlsbad, Calif.), were a generous gift from Dr. Junken Aoki (University of Tokyo, Tokyo, Japan). RH7777 and NIH3T3 cells were obtained from the American Type Culture Collection (Manassas, Va.). HEY cells were provided by Dr. Lisa Jennings (University of Tennessee, Memphis). All cell lines were maintained in Dulbecco's Modified Eagle's Medium (DMEM) containing 10% FBS and 2 mM glutamine. Oocytes were obtained from adult Xenopus laevis frogs as previously described (Tigyi et al., 1999).
as §4
RH7777 cells were plated on polylysine-coated glass coverslips (Bellco, Vineland, N.J.) one day prior to transfection. The following day, cells were transfected overnight (16-18 hr) with 1 μg of plasmid DNA mixed with 6 μl of Cytofectene. The cells were then rinsed twice with DMEM and cultured in DMEM containing 10% FBS. The next day, the cells were rinsed with DMEM and serum was withdrawn for a minimum of 2 hr prior to monitoring intracellular Ca^2+.

[7] = molecular target: T3, human Edg-7 (Homo sapiens, UniProt Q9UBY5); test: Ca2+ responses (Fura-2) in RH7777 cells expressing Edg-7; assay type: cell-based; details: for effect on LPA-elicited Ca2+ responses: 250 nM LPA 18:1 mixed with 500 nM lipid
T3 construct: Flag; expressed in transfected cells
T3 sequence (Q9UBY5 1-353): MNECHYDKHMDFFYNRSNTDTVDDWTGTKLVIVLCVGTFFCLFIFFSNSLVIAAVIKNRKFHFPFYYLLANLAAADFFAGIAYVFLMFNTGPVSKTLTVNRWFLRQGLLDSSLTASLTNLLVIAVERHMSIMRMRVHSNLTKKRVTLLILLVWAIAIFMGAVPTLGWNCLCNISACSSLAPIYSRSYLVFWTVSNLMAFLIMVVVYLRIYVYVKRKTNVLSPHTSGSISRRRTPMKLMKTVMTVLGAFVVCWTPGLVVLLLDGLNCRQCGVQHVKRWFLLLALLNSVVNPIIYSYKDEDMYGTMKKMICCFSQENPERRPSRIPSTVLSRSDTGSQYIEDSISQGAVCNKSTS
Protocol: as §4

[8] = system: HEY ovarian cancer cells; test: Ca2+ responses in HEY ovarian cancer cells; assay type: cell-based; details: 100 nM LPA 18:1 mixed with 1 μM lipid
Description: Likewise, PA 8:0 inhibited the Ca^2+ response to 6% of control, whereas PA 18:1 had no effect. HEY express mRNA transcripts for Edg-1, -2, -5, -7 receptors (FIG. 34C).

[9] = Homo sapiens, DU-145, 96 hours drug exposure
[10] = LPA 18:1 near the EC50 combined with compound 108
[11] = 250 nM LPA 18:1 mixed with 10 μM lipid
[12] = alone, concentrations as high as 10 μM
[13] = mixture of LPA 8:0 and LPA 18:1

PSP24 PLGFR, sequence (P79945 whole entry): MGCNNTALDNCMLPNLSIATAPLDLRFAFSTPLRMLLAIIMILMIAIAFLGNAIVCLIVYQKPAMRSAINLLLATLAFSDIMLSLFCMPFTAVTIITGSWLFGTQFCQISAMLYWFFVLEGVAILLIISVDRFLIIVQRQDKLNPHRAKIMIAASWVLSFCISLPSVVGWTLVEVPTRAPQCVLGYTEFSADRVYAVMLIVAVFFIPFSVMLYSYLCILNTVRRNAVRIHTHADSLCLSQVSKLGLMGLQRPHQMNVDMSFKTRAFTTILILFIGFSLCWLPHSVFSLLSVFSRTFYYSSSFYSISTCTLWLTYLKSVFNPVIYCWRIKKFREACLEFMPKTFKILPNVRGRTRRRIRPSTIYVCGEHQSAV
T1 sequence (Q92633 whole entry): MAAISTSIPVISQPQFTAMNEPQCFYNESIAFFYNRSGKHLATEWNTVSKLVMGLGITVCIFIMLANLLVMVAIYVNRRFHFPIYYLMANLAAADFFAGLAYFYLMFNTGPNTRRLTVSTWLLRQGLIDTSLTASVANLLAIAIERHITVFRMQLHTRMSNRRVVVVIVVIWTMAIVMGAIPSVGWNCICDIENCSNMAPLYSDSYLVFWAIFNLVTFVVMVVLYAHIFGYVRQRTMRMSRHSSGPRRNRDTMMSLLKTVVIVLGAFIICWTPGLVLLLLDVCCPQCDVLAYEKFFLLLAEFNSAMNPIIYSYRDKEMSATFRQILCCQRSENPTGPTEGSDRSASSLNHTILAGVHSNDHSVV
T2 sequence (Q9HBW0 whole entry): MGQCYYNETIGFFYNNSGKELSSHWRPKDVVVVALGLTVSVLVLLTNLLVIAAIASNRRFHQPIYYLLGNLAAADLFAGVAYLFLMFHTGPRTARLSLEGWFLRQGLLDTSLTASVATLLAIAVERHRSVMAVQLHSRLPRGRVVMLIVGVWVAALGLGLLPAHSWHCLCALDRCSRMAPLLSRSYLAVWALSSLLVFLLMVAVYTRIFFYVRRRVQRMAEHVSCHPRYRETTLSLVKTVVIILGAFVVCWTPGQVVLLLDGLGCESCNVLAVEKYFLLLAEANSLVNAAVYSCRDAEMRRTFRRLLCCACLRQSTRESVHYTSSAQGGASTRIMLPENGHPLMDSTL

Compound: CCCCCCCCCCCCCCCCCCNC(=O)C(N)CO.O=C(O)C(F)(F)F (centres unmarked)
- melting point: 170 to 172 °C

Compound: CCCCCCCCCCCCCCNC(=O)C(CO)NC(=O)OC(C)(C)C (centres unmarked) [Compound 27, tert-Butyl N-[1-(hydroxymethyl)-2-oxo-2-(tetradecylamino)ethyl]carbamate]
- IC50 [1]: > 50 µM
- IC50 ([2]; Homo sapiens, LNCaP): 10.9 ± 2.7 µM
- IC50 [3, 9]: 19.7 ± 6 µM
- melting point: 59 to 62 °C

Compound: CCCCCCCCCCCCCCNC(=O)C(N)CO.O=C(O)C(F)(F)F (centres unmarked) [Compound 36, N-1-tetradecyl-2-amino-3-hydroxypropanamide trifluoroacetate]
- inhibition of LPA-induced chloride currents [4]: best inhibitor among the non-phosphorylated derivatives
- melting point: 168 to 171 °C

Compound: CCCCCCCCCCCCCCOc1ccc(NC(=O)C(N)CO)cc1 (centres unmarked) [Compound 38, N-1-[4-(tetradecyloxy)phenyl]-2-amino-3-hydroxypropanamide trifluoroacetate]
- IC50 ([3]; 96 hours drug exposure): 38.9 ± 8.9 µM

Compound: CCCCCCCCCCCCCCNC(=O)C(COP(=O)(OCc1ccccc1)OCc1ccccc1)NC(=O)OC(C)(C)C (centres unmarked) [Compound 51, tert-Butyl N-[1-{([di(benzyloxy)phosphoryl]oxy)methyl}-2-oxo-2-(tetradecylamino)ethyl]carbamate]
- IC50 [1]: 25.4 ± 3.6 µM
- IC50 ([2]; Homo sapiens, LNCaP): 19.9 ± 6.4 µM
- IC50 [3, 9]: 8.1 ± 1.3 µM
- melting point: 33 to 35 °C

Compound: CCCCCCCCCCCCCCNC(=O)C(N)COP(=O)(O)O (centres unmarked) [Compound 56, 2-Amino-3-oxo-3-(tetradecylamino)propyl dihydrogen phosphate]
- inhibition of LPA-induced chloride currents [4]: inhibitors of LPA-induced chloride current
- reversibility of inhibition of LPA-induced chloride currents [4]: reversible

Compound: CCCCCCCCCCCCCCCCCCNC(=O)C(N)COP(=O)(O)O (centres unmarked) [Compound 57, 2-Amino-3-(octadecylamino)-3-oxopropyl dihydrogen phosphate]
- inhibition of LPA-induced chloride currents [4]: inhibitors of LPA-induced chloride current
- reversibility of inhibition of LPA-induced chloride currents [4]: reversible

Compound: CCCCCCCCCCCCOCC(COP(=O)(O)O)OP(=O)(O)O (centres unmarked) [Compound 67, 1,2-(3-Dodecyloxypropane)-bis(dihydrogen phosphate)]
- threshold to elicit a response alone [4]: ~1000 nM
- IC50 [2]: 25.2 ± 12.3 µM

Compound: CCCCCCCCCCCCCCCCOCC(COP(=O)(O)O)OP(=O)(O)O (centres unmarked) [Compound 68, 1,2-(3-Hexadecyloxypropane)-bis(dihydrogen phosphate)]
- threshold to elicit a response alone [4]: ~10 nM
- IC50 [2]: 29.3 ± 21.7 µM

Compound: CCCCCCCCCCCCCC(=O)OCC(COP(=O)(O)O)OP(=O)(O)O (centres unmarked) [Compound 85, 1,2-(3-Tetradecanoyloxypropane)-bis(dihydrogen phosphate)]
- threshold to elicit a response alone [4]: ~100 nM
- IC50 [2]: 11.6 ± 10.3 µM

Compound: CCCCCCCCCCCCCCCCCC(=O)OCC(COP(=O)(O)O)OP(=O)(O)O (centres unmarked) [Compound 89, 1,2-(3-Octadecanoyloxypropane)-bis(dihydrogen phosphate)]
- inhibition of LPA-induced response ([4]; against 2 nM LPA, compound concentration not given): 59%

Compound: CCCCCCCCCCCCCCCCCCC(=O)OCC(COP(=O)(O)O)OP(=O)(O)O (centres unmarked) [Compound 90, 1,2-(3-Nonadecanoyloxypropane)-bis(dihydrogen phosphate)]
- IC50 ([3]; 96 hours drug exposure): > 50 µM

Compound: CCCCCCCCCCCCCCCCCCCC(=O)OCC(COP(=O)(O)O)OP(=O)(O)O (centres unmarked) [Compound 91, 1,2-(3-Icosanoyloxypropane)-bis(dihydrogen phosphate)]
- IC50 ([3]; 96 hours drug exposure): 42.2 ± 1.9 µM

Compound: CCCCCCCCCCCCCCCCCCCCCC(=O)OCC(COP(=O)(O)O)OP(=O)(O)O (centres unmarked) [Compound 92, 1,2-(3-Docosanoyloxypropane)-bis(dihydrogen phosphate)]
- inhibition of LPA-induced chloride currents [4]: inhibitors of LPA-induced chloride current
- reversibility of inhibition of LPA-induced chloride currents [4]: reversible

Compound: CCCCCCCCCCCCOP(=O)(O)O [Compound 108, Phosphoric Acid Monododecyl Ester]
- Ca2+ responses, % of control [5, 10]: about 63 % of control
- Ca2+ responses, % of control [6, 10]: about 148 % of control
- Ca2+ responses, % of control [7, 10]: ~56 % of control

Compound: O=c1[nH]cc(F)c(=O)[nH]1 [Fluorouracil, 5-fluorouracil]
- IC50 [1]: 10.2 ± 4.1 µM
- IC50 ([2]; Homo sapiens, LNCaP): 2.8 ± 1.6 µM
- IC50 [3, 9]: 6.8 ± 3.3 µM

Compound: CCCCCCCCCCCCC/C=C/[C@@H](O)[C@@H](N)COP(=O)(O)O [SPP (13:0), sphingosine-1-phosphate]
- IC50 [1]: > 50 µM
- IC50 [3, 9]: > 10 µM

Compound: Phosphatidic acid [PA 18:1]
- decrease of the Ca2+ response [5, 11]: 18%
- Ca2+ responses, % of control ([6]; stable Edg-4, 500 nM LPA 18:1 mixed with 5 μM lipid): 137 % of control
- effect on LPA-elicited Ca2+ responses [7]: no longer inhibitors of Edg-7
- effect on LPA-elicited Ca2+ response [8]: had no effect

Compound: diacyl glycerol [DAG 8:0]
- Ca2+ response, % of control [5, 11]: 64 % of control
- effect on LPA-elicited Ca2+ responses [7]: significantly increased the Ca^2+ responses

Compound: diacyl glycerol [DAG 18:1]
- inhibitory effect on LPA-elicited Ca2+ response [5, 11]: no longer had an inhibitory effect
- effect on LPA-elicited Ca2+ responses [7]: did not have an inhibitory effect

Compound: lysophosphatidic acid [LPA 8:0]
- Ca2+ response elicited alone [5, 12]: unable to elicit Ca^2+ responses
- effect of mixture with LPA 18:1 on Ca2+ responses [5, 13]: not effected
- Ca2+ response elicited alone [6, 12]: unable to elicit Ca^2+ responses
- effect of mixture with LPA 18:1 on Ca2+ responses ([6]; mixture of LPA 8:0 and LPA 18:1, stable cells): not effected
- effect on LPA-elicited Ca2+ responses [7]: had no effect
- Ca2+ response elicited alone [7, 12]: unable to elicit Ca^2+ responses
- effect of mixture with LPA 18:1 on Ca2+ responses [7, 13]: not effected

Compound: lysophosphatidic acid [LPA (18:1)]
- EC50 ([5]; stable Edg-2 expressing cells, read-out: EC50, Ca2+ transients): 0.378 ± 0.053 µM
- EC50 ([4]; LPA alone, FIG. 37, read-out: EC50 of LPA alone (positive control solution)): 0.025 µM
- IC50 [1]: 28.5 ± 6.3 µM
